Consider 69 compounds from PubChem BioAssay AID179 (DTP/NCI, 2004).

Each structure is given as a SMILES string. pEC50, pIC50: −log10 of the molar value. Active and inactive are the calls of the source.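 Rule for the calls: active = compounds giving half or more protection of infected cells from virus-caused growth loss, again on retest; inactive = the rest.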 Where a SMILES comes first, the peptide text is derived from it.

For this test, the system named is CEM cells HIV-1 protection, formazan growth assay. The experiment in a line: NCI AIDS Antiviral Assay. The note with it: for pIC50: measured here: growth of uninfected CEM cells. A digest of the protocol:
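Human CEM cells, uninfected and HIV-1-infected, exposed to five drug concentrations; growth measured by soluble formazan assay and scored as percent protection from infection, with protecting compounds retested.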

For the compound `C=C(C)[C@@]1(OC(=O)c2cc([N+](=O)[O-])cc([N+](=O)[O-])c2)C[C@@H]2CCCC[C@@H]21`, the result was inactive.
With `CC(=O)OCC1OC(n2c(=S)n(-c3ccccc3)c(=O)c3cc(Br)ccc32)C(OC(C)=O)C(OC(C)=O)C1OC(C)=O` (configuration not stated), the pEC50 (commonly −log10 of the EC50, conventionally taken in molar units) is under 4.97 and the negative logarithm of the IC50 (pIC50) (usually the negative decadic logarithm of the IC50, by convention in mol/L) was under 4.97.
In the case of `Clc1ccc(CSc2nnc(SCc3ccc(Cl)c(Cl)c3)c3[nH]cnc23)cc1Cl`, the pEC50 was under 3.70 and the negative logarithm of the IC50 (pIC50) is 4.90.
For `COC(=O)C1(Cc2ccc3c(c2)CCC3)Cc2ccc3c(c2C1O)CCC3` (configuration not stated), in that order: under 3.70 and 4.91.
On to `COc1ccc(NC(=O)CSc2nnc(Cc3ccccc3)o2)cc1`, for which the pEC50 is under 4.00 and the negative logarithm of the IC50 (pIC50) is 4.63.
Take `O=C1C2CCCCC2C(=O)N1n1c(-c2ccccc2)n[nH]c1=O` (configuration not stated): the pEC50 is under 3.70 and the negative-log IC50 (pIC50) is under 3.70.
For `CC(NC(=O)OCc1ccccc1)NC(=O)C(CC(=O)OC(C)(C)C)NC(=O)OC(C)(C)C` (configuration not stated), the pEC50 was under 3.70 and the negative logarithm of the IC50 (pIC50) was under 3.70.
For the compound `Cc1cc2ccc([N+](=O)[O-])cn2c1`, the pEC50 was under 3.70 and the pIC50 is 3.94.
For `CC1CCc2c(sc3ncnc(N/N=C/c4ccc(Cl)c(Cl)c4)c23)C1` (configuration not stated), in that order: under 4.59 and under 4.59.
On to `Clc1ccc(C2=NCON=C2c2ccc(Cl)cc2)cc1`, for which the outcome was inactive.
With `C/C=C1/C(=Cc2[nH]c(C=c3[nH]/c(=C/C4=NC(=O)C(CC)=C4C)c(C)c3CCC(=O)O)c(CCC(=O)O)c2C)NC(=O)C1C` (configuration not stated), the pEC50 is under 4.54 and the pIC50 is under 4.54.
Regarding `CC(C)CCC[C@@H](C)[C@H]1CC[C@H]2[C@@H]3CC[C@H]4C[C@@H](CCCC(c5ccc(O)c(C(=O)O)c5)c5ccc(O)c(C(=O)O)c5)CC[C@]4(C)[C@H]3CC[C@]12C`, the negative logarithm of the EC50 (pEC50) is 4.19 and the pIC50 is under 4.00.
Consider `CNC(=O)O/N=C(/C)c1cccc([N+](=O)[O-])c1`, for which the pEC50 was under 3.70 and the negative logarithm of the IC50 (pIC50) was under 3.70.
Regarding `NCC1(N2CCOCC2)C2CCCC21CNc1ccccc1` (configuration not stated), the pEC50 was under 4.62 and the pIC50 was under 4.62.
As to `COc1ccc(-n2sc3ncc(-c4ccccc4)cc3c2=O)cc1`, the negative-log EC50 (pEC50) is 5.15 and the negative logarithm of the IC50 (pIC50) is 4.45.
For `O=C1Cc2c(-c3ccc(Cl)cc3)cc(-c3ccccc3)nc2-c2ccccc2N1`, in that order: under 4.00 and 4.54.
For `NCCCCC(NC(=O)C(CO)NC(=O)C(CO)NC(=O)CN)C(=O)NC(CO)C(=O)NC(CCCCN)C(=O)N1CCCC1C(=O)NC(CCCCN)C(=O)NC(CC(=O)O)C(N)=O` (configuration not stated) (H-GSSKSKPKD-NH2; configuration not given here), in that order: under 3.57 and under 3.57.
With `O/N=C1\CN2CCC1CC2`, the result was inactive.
For `NC(N)=NCCN1CC2CCC(CC2)C1`, the negative logarithm of the EC50 (pEC50) is 4.21 and the pIC50 was 3.82.
For `O=C(OCc1c(-c2ccccc2)nn(-c2ccccc2)c1COC(=O)Oc1ccccc1)Oc1ccccc1`, in that order: under 3.70 and under 3.70.
The like results for `O=C(Nc1ccc(Cl)cc1Cl)C1C(=O)C(=O)N(c2ccc(Cl)cc2Cl)C1=O` (configuration not stated) were, in that order, under 5.07 and under 5.07.
For `COc1ccccc1N1C(=O)/C(=C\c2cc(OC)c(OC)c(OC)c2)SC1c1ccccc1` (configuration not stated), in that order: under 3.70 and 4.40.
Consider `C=CC(C)(C)c1cc(O)c2oc3c(O)cccc3c(=O)c2c1O`, for which the pEC50 is under 3.82 and the pIC50 is 4.43.
For `COc1c(C)c2c(c3c1c(=O)c1ccccc1n3C)C=CC(C)(C)O2`, in that order: under 4.81 and 4.96.
Regarding `C1=CC=C(N=P(c2ccccc2)(c2ccccc2)c2ccccc2)CC=C1`, the outcome was inactive.
Turning to `COc1ccc2c(c1)C=CC1OC(C(C)=O)(C(C)=O)C(C=O)=CN21` (configuration not stated), the pEC50 is under 4.10 and the negative logarithm of the IC50 (pIC50) was 4.41.
For `Cc1c(-c2nc(N)c(C#N)c(N)c2C#N)c(=O)oc2ccccc12`, in that order: under 3.70 and 3.94.
Take `CC(=O)O[C@]1(C)OC(=O)[C@@H](CC(C)C)N1[N+](=O)[O-]`: the result was inactive.
Regarding `COC[C@]12CN(C=O)[C@H]3C4[C@H](OC)[C@H]1C3([C@@H](OC)C[C@H]2O)[C@@H]1C[C@@]2(O)[C@H](OC(=O)c3ccccc3)[C@@H]1[C@]4(OC(C)=O)[C@@H](O)[C@@H]2OC`, the pEC50 is under 3.70 and the negative-log IC50 (pIC50) was under 3.70.
For the compound `CC(C#N)Nc1ccc(Oc2ccc(C(C)(C)c3ccc(Oc4ccc(NC(C)C#N)cc4)cc3)cc2)cc1` (configuration not stated), the pEC50 is under 3.70 and the pIC50 was 4.87.
The like results for `COc1cc2c(c(O)c1OC)C(O)C1CCC(=O)N1C2c1ccc2c(c1)OCO2` (configuration not stated) were, in that order, under 3.70 and 3.87.
The like results for `CCOC(=O)Nc1ccc(/C=C\c2ccnc3ccccc23)cc1` were, in that order, under 4.79 and 5.00.
For `CCCC1C2C(=O)N(c3ccccc3)C(=O)C2ON1c1ccccc1` (configuration not stated), in that order: under 4.39 and under 4.39.
For the compound `CNC(=O)NCCN1N=C(C)/C(=C\c2ccccc2)CC1=O`, the outcome was inactive.
The same measure, in the same setting: as for `O=S(O)CCCCSSCCCCS(=O)(O)=S`, the entry is “inactive”.
For the compound `CC(=O)/C(=C\c1ccccc1O)C(=O)Nc1ccccc1C`, the pEC50 was under 4.47 and the negative-log IC50 (pIC50) is 4.65.
For `COc1cc2cnc3c4cc(OC)c(OC(C)C)cc4ccc3c2cc1OC`, in that order: under 5.27 and under 5.27.
The like results for `O=C(/C=C/c1ccc(O)c(O)c1)Oc1ccccc1` were, in that order, under 3.70 and 5.03.
For the compound `Oc1cc(Cl)cc2cccnc12`, the result was inactive.
As to `O=C1c2ccccc2C(=O)N1Cc1ccccc1-c1c2nc(c(-c3ccccc3CN3C(=O)c4ccccc4C3=O)c3ccc([nH]3)c(-c3ccccc3CN3C(=O)c4ccccc4C3=O)c3nc(c(-c4ccccc4CN4C(=O)c5ccccc5C4=O)c4ccc1[nH]4)C=C3)C=C2`, the pEC50 is under 5.38 and the negative-log IC50 (pIC50) was under 5.38.
For the compound `CC(=O)OCC1OC(OC(C)=O)C(On2nnc3c(-c4ccccc4)c(C)nn32)C(OC(C)=O)C1OC(C)=O` (configuration not stated), the pEC50 is under 4.22 and the pIC50 was 4.50.
With `CC(=O)C1(c2ccccc2)CCCN(C)CC1` (configuration not stated), the outcome was inactive.
Consider `CCCC(=O)N/S(=N/S(=O)(=O)c1ccc(Cl)cc1)C(Cl)(Cl)Cl` (configuration not stated), for which the negative logarithm of the EC50 (pEC50) is 3.79 and the pIC50 was under 3.70.
For `CCSc1nc(=S)n(-c2ccccc2)c(C)c1C(C)=O`, in that order: under 3.70 and under 3.70.
Take `Oc1ccccc1/C=N/NC(=S)Nc1cccc2cc3ccccc3nc12`: the pEC50 was under 3.70 and the negative-log IC50 (pIC50) is 6.24.
The like results for `O=C(Nn1c(-c2ccccc2)nc2ccccc2c1=O)c1ccccn1` were, in that order, under 3.70 and 3.91.
For `O=C1CSc2ccccc2-n2cccc21`, in that order: under 3.68 and 3.98.
For `Cc1ccc(NC(=O)C2C(=O)C(=O)N(c3ccc(C)cc3)C2=O)cc1` (configuration not stated), in that order: under 4.81 and under 4.81.
With `COc1cc2c3cc1Oc1c(OC)c(OC)cc4c1C(Cc1ccc(O)c(c1)Oc1ccc(cc1)CC3N(C)CC2)N(C)CC4` (configuration not stated), the outcome was inactive.
As for `CC(=O)N[C@]1(C)CCC2C[C@H]1C(C)=NC2(C)C`, the pEC50 was under 2.98 and the pIC50 was under 2.98.
`Cc1c(Cl)cccc1NC(=O)C(=O)C1C(=O)CC(C)(C)CC1=O`: the pEC50 is under 3.13 and the negative logarithm of the IC50 (pIC50) was under 3.13.
As for `O=S(=O)(Cc1ccccc1)c1nnc(S(=O)(=O)c2ccc(Cl)cc2)s1`, the pEC50 is under 3.70 and the negative logarithm of the IC50 (pIC50) was 5.26.
For `Cc1cn(C2CC(N=[N+]=[N-])C(CO)O2)c(=O)nc1N` (configuration not stated), in that order: under 3.70 and under 3.70.
For `CC1(C)OC2OC(COC(=S)SSC(=S)OCC3OC4OC(C)(C)OC4C4OC(C)(C)OC34)C3OC(C)(C)OC3C2O1` (configuration not stated), in that order: under 3.70 and 5.25.
For `CC1=Nc2ccccc2/C1=C\c1c(C)[nH]c2ccccc12`, in that order: 7.20 and 4.94.
With `O=c1c2ccccc2[se]n1-c1ccc(Cl)cc1`, the pEC50 is 5.09 and the pIC50 was 4.63.
For `COc1cc2c(cc1OC)-c1cc3ccccc3c(=O)n1CCC2`, in that order: under 4.70 and 5.55.
For `COc1cc(-c2ccc(N=Nc3cc(S(=O)(=O)O)c4ccccc4c3N)c(OC)c2)ccc1N=Nc1cc(S(=O)(=O)O)c2ccccc2c1N`, in that order: 4.88 and 3.81.
With `N#CC1(c2nc3ccccc3o2)C(=O)C(=O)N(C2C3CC4CC(C3)CC2C4)C(=O)C1=O` (configuration not stated), the pEC50 is under 3.97 and the pIC50 is under 3.97.
For the compound `COc1cccc(C2c3cc4c(cc3OC(NNc3ccccc3)C2C)OCO4)c1OC` (configuration not stated), the pEC50 is under 3.70 and the negative logarithm of the IC50 (pIC50) is 5.09.
Consider `Clc1ccc2sc3c(c2c1)CCNC3`, for which the result was inactive.
With `CC(C)C(F)(C(N)=O)C(=O)O` (configuration not stated), the pEC50 is under 3.70 and the negative-log IC50 (pIC50) was under 3.70.
Turning to `COc1cc2nc(Sc3c([N+](=O)[O-])ncn3C)[nH]c2cc1OC`, the pEC50 is under 3.41 and the pIC50 was 5.26.
`O=C(O)C1C(C(=O)O)C2C=CC1C21CCCC1` (configuration not stated): the pEC50 was under 3.42 and the pIC50 is under 3.42.
For `CCOC(=O)c1c(N)sc2c1CCCCC2`, the pEC50 was under 4.02 and the negative logarithm of the IC50 (pIC50) was under 4.02.
On to `O=C(OCc1ccccc1)N1CC(O)C2OC3OC4(CCCCC4)OC3C21` (configuration not stated), for which the pEC50 was under 3.70 and the pIC50 was 3.77.
The like results for `O=C(CCCl)NNC1=NCCCCN1` were, in that order, under 3.70 and under 3.70.
For `CN=S(=O)(C[C@]1(O)CC2OC1C1OC(C)(C)OC21)c1ccccc1` (some centres not stated), the pEC50 is under 3.15 and the negative-log IC50 (pIC50) was under 3.15.
Take `COC(=O)[C@H]1[C@H](OC(=O)[C@@H](OC)c2ccccc2)ON2CC[C@@H](OC(=O)c3ccccc3)[C@H]12`: the pEC50 was under 3.70 and the pIC50 was 3.75.
